Measured values published in ChEMBL document CHEMBL1148828, “Deoxycholic acid-derived tetraoxane antimalarials and antiproliferatives(1)” (J Med Chem, 2007).
Activity calls are given as the source filed them. The calls are words filed in the database; no cut-off is given here.

Legend:
UO-31 = test: Antiproliferative activity against human UO31 cells after 48 hrs; type: functional
NCI = test: Growth inhibition of human NCI DTP 60 cells; type: functional
Plasmodium falciparum [1] = test: Antimalarial activity against Plasmodium falciparum D6; type: functional, organism-based
Plasmodium falciparum [2] = test: Antimalarial activity against Plasmodium falciparum W2; type: functional, organism-based
A549 = test: Antiproliferative activity against human A549 cells after 48 hrs; type: functional; settings: A549, 48 h
Plasmodium falciparum [3] = test: Antimalarial activity against Plasmodium falciparum TM91C235; type: functional, organism-based
LOX IMVI = test: Antiproliferative activity against human LOX IMVI cells after 48 hrs; type: functional
HOP-92 = test: Antiproliferative activity against human HOP92 cells after 48 hrs; type: functional
Plasmodium berghei [4] = test: Antimalarial activity as survivors after 31 days in Plasmodium berghei KBG173 infected CD1 mice (Mus musculus) at 80 mg/kg/day; type: functional, organism-based; settings: KBG 173
CAKI-1 = test: Antiproliferative activity against human CAKI1 cells after 48 hrs; type: functional; settings: CAKI-1, 48 h
NCI-H460 = test: Antiproliferative activity against human NCI-H460 cells after 48 hrs; type: functional; settings: NCI-H460, 48 h
NCI-H522 = test: Antiproliferative activity against human NCI-H522 cells after 48 hrs; type: functional; settings: NCI-H522, 48 h
786-0 = test: Antiproliferative activity against human 786-0 cells after 48 hrs; type: functional; settings: for CC50: read-out: LC50 (the source's name)
IGROV-1 = test: Antiproliferative activity against human IGROV1 cells after 48 hrs; type: functional; settings: IGROV-1, 48 h
PC-3 = test: Antiproliferative activity against human PC3 cells after 48 hrs; type: functional; settings: PC-3, 48 h
CCRF-CEM = test: Antiproliferative activity against human CCRF-CEM cells after 48 hrs; type: functional
HL-60 = test: Antiproliferative activity against human HL60 cells after 48 hrs; type: functional
DU-145 = test: Antiproliferative activity against human DU145 cells after 48 hrs; type: functional; settings: DU-145, 48 h
Plasmodium berghei [5] = test: Antimalarial activity as survivors after 31 days in Plasmodium berghei KBG173 infected CD1 mice (Mus musculus) at 20 mg/kg/day; type: functional, organism-based; settings: KBG 173
[6] = read-out: LC50 (the source's name)

SMILES: CC(=O)O[C@H]1C[C@H]2[C@@H]([C@H](OC(C)=O)C[C@@H]3CC4(CC[C@@]32C)OOC2(CCC(C)CC2)OO4)[C@@H]2CC[C@H]([C@H](C)CCC(=O)Nc3ccccc3)[C@@]12C (stereo in doubt; 21)
- GI50 (UO-31; Homo sapiens, UO-31, 48 h): 222 nM
- LC50 (UO-31; Homo sapiens, UO-31, 48 h): > 10000 nM
- TGI (UO-31; Homo sapiens, UO-31, 48 h): 487 nM
- GI50 (NCI; Homo sapiens, NCI): 180 nM
- IC50 (Plasmodium falciparum [1]): 19.8 nM
- IC90 (Plasmodium falciparum [1]): 29.2 nM
- IC50 (Plasmodium falciparum [2]): 23.1 nM
- IC90 (Plasmodium falciparum [2]): 54.6 nM
- GI50 (A549): 255 nM
- TGI (A549): 664 nM
- IC50 (Plasmodium falciparum [3]): 27.2 nM
- IC90 (Plasmodium falciparum [3]): 69.7 nM
- GI50 (LOX IMVI): 181 nM
- LC50 (concentration killing 50% of cells) (LOX IMVI): 758 nM
- TGI (LOX IMVI): 370 nM
- GI50 (HOP-92; Homo sapiens, HOP-92, 48 h): 266 nM
- LC50 (concentration killing 50% of cells) (HOP-92; Homo sapiens, HOP-92, 48 h): 8840 nM
- TGI (HOP-92; Homo sapiens, HOP-92, 48 h): 766 nM

SMILES: CC(=O)O[C@H]1C[C@H]2[C@@H]([C@H](OC(C)=O)C[C@@H]3CC4(CC[C@@]32C)OOC2(CCC(C)CC2)OO4)[C@@H]2CC[C@H]([C@H](C)CCC(=O)NCCN(C)C)[C@@]12C (stereo in doubt; 23)
- Activity (Plasmodium berghei [4]): inactive

SMILES: CC(=O)O[C@H]1C[C@H]2[C@@H]([C@H](OC(C)=O)C[C@@H]3CC4(CC[C@@]32C)OOC2(CCCCC2)OO4)[C@@H]2CC[C@H]([C@H](C)CCC(N)=O)[C@@]12C
- GI50 (CAKI-1): 200 nM
- TGI (CAKI-1): 1120 nM
- CC50 (CAKI-1; [6]): 3590 nM
- GI50 (NCI-H460): 550 nM
- TGI (NCI-H460): 2070 nM
- CC50 (NCI-H460; [6]): 5280 nM
- GI50 (UO-31; Homo sapiens, UO-31, 48 h): < 10 nM
- LC50 (UO-31; Homo sapiens, UO-31, 48 h): 40 nM
- TGI (UO-31; Homo sapiens, UO-31, 48 h): 14 nM
- GI50 (NCI-H522): 230 nM
- TGI (NCI-H522): 770 nM
- CC50 (NCI-H522; [6]): 3020 nM
- GI50 (NCI; Homo sapiens, NCI): < 10 nM
- GI50 (786-0; Homo sapiens, 786-0, 48 h): 783 nM
- TGI (786-0; Homo sapiens, 786-0, 48 h): 2090 nM
- CC50 (786-0; Homo sapiens, 786-0, 48 h): 4570 nM
- GI50 (IGROV-1): 32 nM
- LC50 (concentration killing 50% of cells) (IGROV-1): 430 nM
- TGI (IGROV-1): 120 nM

SMILES: CC1CCC2(CC1)OOC1(CC[C@@]3(C)[C@H](CC[C@@H]4[C@@H]3C[C@H](O)[C@]3(C)[C@@H]([C@H](C)CCC(=O)NCCN(C)C)CC[C@@H]43)C1)OO2 (stereo in doubt; 17a)
- GI50 (UO-31): 165 nM
- LC50 (UO-31): 613 nM
- TGI (UO-31): 318 nM
- GI50 (NCI): 130 nM
- GI50 (PC-3): 367 nM
- TGI (PC-3): 1620 nM
- CC50 (PC-3; [6]): 4450 nM
- GI50 (786-0): 335 nM
- TGI (786-0): 1050 nM
- CC50 (786-0): 3650 nM
- GI50 (CCRF-CEM): 186 nM
- LC50 (concentration killing 50% of cells) (CCRF-CEM): 792 nM
- TGI (CCRF-CEM): 384 nM
- GI50 (LOX IMVI): 180 nM
- LC50 (concentration killing 50% of cells) (LOX IMVI): 689 nM
- TGI (LOX IMVI): 352 nM
- GI50 (HL-60): 264 nM
- TGI (HL-60): 477 nM
- CC50 (HL-60; [6]): 863 nM
- GI50 (DU-145): 641 nM
- LC50 (concentration killing 50% of cells) (DU-145): 4490 nM
- TGI (DU-145): 1910 nM
- GI50 (HOP-92): 171 nM
- LC50 (concentration killing 50% of cells) (HOP-92): 794 nM
- TGI (HOP-92): 368 nM
- GI50 (IGROV-1): 160 nM
- LC50 (concentration killing 50% of cells) (IGROV-1): 712 nM
- TGI (IGROV-1): 338 nM

SMILES: CC(=O)O[C@H]1C[C@H]2[C@@H]([C@H](OC(C)=O)C[C@@H]3CC4(CC[C@@]32C)OOC2(CCC(C)CC2)OO4)[C@@H]2CC[C@H]([C@H](C)CCC(=O)NCCN(C)C)[C@@]12C (stereo in doubt; 22)
- Activity (Plasmodium berghei [5]): inactive
